Laboratory results reported in US11759411B2, “Non-therapeutic use of a biodegradable hydrocarbon oil” (TOTAL MARKETING SERVICES, priority 2017, dated 2023).
Marks after values point to notes of the source that are not given here.

How the values were obtained:
[1] = test system: HaCaT cells; assay: HOECHST 33342 test, condensation of the chromatin; assay type: cell-based; details: one hour with oil or CM, then 20 minutes with BAC 8 ppm by weight, HOECHST 33342, HaCat cells
Experimental: The following standards and methods were used to measure the properties hereinabove: • flash point: EN ISO 2719 • density at 15° C.: EN ISO 1185 • viscosity at 40° C.: EN ISO 3104 • aniline point: EN ISO 2977 • boiling point: ASTM D86 • biodegradability: OECD method 306 • refractive index at 20° C.: ASTM D 1218 • vapour pressure: calculated according to methods well known to those skilled in the art Tests for Anti-Wrinkle or Anti-Ageing Cosmetic Applications Preparation of the Tests: • Preparation of the microplates: 24 hours before the incubation with the oils A and B, the HaCaT cells are inoculated with a cell density of 100,000 cells/ml in 96-well microplates (Corning). The microplates are then placed in the incubator at 37° C. In a microplate, each condition was tested at least three times. Each experiment was carried out at least three times independently in order to validate the reproducibility of the results and to carry out statistical analyses. • Incubation of cells with the oils A or B: two durations of incubation were selected for the products to be tested pure: an incubation for fifteen minutes and an incubation for one hour. […]
The cellular effects are evaluated directly on the adherent living cells by cytofluorimetric microtitration (MiFALC tests-Microtitration Fluorimetric Assays on Live Cells). The microplate reader used in the study is the Safire cytometer (Tecan). […]

[2] = test system: HaCaT cells; assay: H2DCF-DA test, production of ROS after oil then preservative (POE or MIT); assay type: cell-based
Experimental: The following standards and methods were used to measure the properties hereinabove: • flash point: EN ISO 2719 • density at 15° C.: EN ISO 1185 • viscosity at 40° C.: EN ISO 3104 • aniline point: EN ISO 2977 • boiling point: ASTM D86 • biodegradability: OECD method 306 • refractive index at 20° C.: ASTM D 1218 • vapour pressure: calculated according to methods well known to those skilled in the art Tests for Anti-Wrinkle or Anti-Ageing Cosmetic Applications Preparation of the Tests: • Preparation of the microplates: 24 hours before the incubation with the oils A and B, the HaCaT cells are inoculated with a cell density of 100,000 cells/ml in 96-well microplates (Corning). […]
The cellular effects are evaluated directly on the adherent living cells by cytofluorimetric microtitration (MiFALC tests-Microtitration Fluorimetric Assays on Live Cells). The microplate reader used in the study is the Safire cytometer (Tecan).
The test H2DCF-DA (2′,7′-dihydrodichlorofluoresceine diacetate) is used in order to evaluate the production of reactive oxygen species. […] Thus, an increase in the intensity of fluorescence is combined with an increase in the production of reactive oxygen species (ROS) and by extrapolation with an increase in the oxidative stress in the cells studied.
Preservatives, used as an additive in cosmetic compositions, were evaluated. […]

benzalkonium chloride [CM + BAC]
Measurement of the condensation of the chromatin [1]: 138*** % relative to the CM

phenoxyethanol [CM + POE]
Production of ROS ([2]; oil or CM (e.g. 15 minutes) then POE (e.g. 30 minutes, phenoxyethanol 250 μg/mL)): 132 % relative to the CM

Cn1sccc1=O [MIT, methylisothiazolinone]
Production of ROS ([2]; oil or none, then MIT): 135 % relative to the CM
